Assay results taken from patent US7241777B2, “Benzylimidazolyl substituted 2-quinoline and quinazoline derivatives for use as farnesyl transferase inhibitors” (Janssen Pharmaceutica N.V., priority 2002, dated 2007).
Where two headings read alike, the source gives them in different places.

What was measured:
[1] = target: farnesyl protein transferase (Homo sapiens, UniProt P49354+P49356); experiment: In vitro assay for inhibition of farnesyl protein transferase; type: biochemical; details: for IC50: negative log value of the IC50-value; for inhibition at 0.1 µM: read-out: % of inhibition at 10^−7 M
Method: “In Vitro Assay for Inhibition of Farnesyl Protein Transferase”
An in vitro assay for inhibition of farnesyl transferase was performed essentially as described in WO 98/40383pages 33–34.

[2] = read-out: Enzyme activity pIC50 (converted)

## Cn1c(=O)cc(-c2cccc(Cl)c2)c2cc(C(O)c3cncn3Cc3ccc(C#N)cc3)ccc21 (stereo not drawn) [Compound 3, 4-[[5-[[4-(3-chlorophenyl)-1,2-dihydro-1-methyl-2-oxo-6-quinolinyl]hydroxymethyl]-1H-imidazol-1-yl]methyl]-benzonitrile]
[1]; [2]
  IC50: 5.45 nM
[1]; read-out: pIC50 (converted)
  IC50: 5.01 nM
[1]
  inhibition at 0.1 µM: 92%
other
  melting point: 150 °C

## Cn1c(=O)cc(-c2cccc(Cl)c2)c2cc(C(c3cncn3Cc3ccccc3)n3ccnc3)ccc21 (stereo not drawn) [Compound 12]
[1]; [2]
  IC50: > 100 nM
[1]
  inhibition at 0.1 µM: 47%
other
  melting point: 102 °C

## Cn1c(=O)cc(-c2cccc(Cl)c2)c2cc(C(=O)c3cncn3Cc3ccccc3)ccc21 [Compound 7]
other
  melting point: 192 °C

## N#Cc1ccc(Cn2c(=O)cc(-c3cccc(Cl)c3)c3cc(C(=O)c4cncn4Cc4ccc(Cl)cc4)ccc32)cc1 [Compound 17]
[1]; [2]
  IC50: > 100 nM
[1]
  inhibition at 0.1 µM: 33%

## Cn1c(=O)cc(-c2cccc(Cl)c2)c2cc(C(O)c3cncn3Cc3ccccc3)ccc21 (stereo not drawn) [Compound 8]
other
  melting point: 188 °C

## CC(=O)NC(c1ccc2c(c1)c(-c1cccc(Cl)c1)cc(=O)n2C)c1cncn1Cc1ccccc1 (stereo not drawn) [Compound 13]
[1]; [2]
  IC50: < 100 nM
[1]
  inhibition at 0.1 µM: 65%
other
  melting point: 210 °C

## Cn1c(=O)cc(-c2cccc(Cl)c2)c2cc(C(NC3CC3)c3cncn3Cc3ccccc3)ccc21 (stereo not drawn) [Compound 9]
[1]; [2]
  IC50: > 100 nM
[1]
  inhibition at 0.1 µM: 44%

## OC(c1ccc2c(c1)c(-c1cccc(Cl)c1)cc1nnnn12)c1cncn1Cc1ccc(Cl)cc1 (stereo not drawn) [Compound 5]
[1]; [2]
  IC50: > 100 nM
[1]
  inhibition at 0.1 µM: 32%
other
  melting point: 140 °C

## O=C(c1ccc2c(c1)c(-c1cccc(Cl)c1)cc1nnnn12)c1cncn1Cc1ccc(Cl)cc1 [Compound 4]
[1]; [2]
  IC50: > 100 nM
[1]
  inhibition at 0.1 µM: 26%
other
  melting point: 105 °C

## N#Cc1ccc(Cn2cncc2C(O)c2ccc3c(c2)c(-c2cccc(Cl)c2)cc2nnnn23)cc1 (stereo not drawn) [Compound 14]
[1]; read-out: pIC50 (converted)
  IC50: 10.8 nM
[1]
  inhibition at 0.1 µM: 87%

## COC(c1ccc2c(c1)c(-c1cccc(Cl)c1)cc(=O)n2C)c1cncn1Cc1ccccc1 (stereo not drawn) [Compound 10]
[1]; [2]
  IC50: > 100 nM
[1]
  inhibition at 0.1 µM: 43%

## Cn1c(=O)cc(-c2cccc(Cl)c2)c2cc(C(N)c3cncn3Cc3ccccc3)ccc21 (stereo not drawn) [Compound 11]
[1]; [2]
  IC50: > 100 nM
[1]
  inhibition at 0.1 µM: 49%

## O=C(c1ccc2c(c1)c(-c1cccc(Cl)c1)cc(=O)n2CC1CC1)c1cncn1Cc1ccc(Cl)cc1 [Compound 16]
[1]; [2]
  IC50: > 100 nM
[1]
  inhibition at 0.1 µM: 18%
